The target of assay [1] is T1, Recombinant G2019S-LRRK2 protein (Homo sapiens, UniProt Q5S007, G2019S).
T1 construct: purchased Life Technologies PV4881
Description: LanthaScreen Kinase Activity Assay (TR-FRET), G2019S-LRRK2. Type of assay: biochemical. The note with it: class symbols; 25 μM ATP, 400 nM LRRKtide, 2.9 nM kinase, 60 min at room temperature. Summed up: (§1)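 Recombinant wild-type or G2019S LRRK2 (2.9 nM final) phosphorylated fluorescein-LRRKtide (400 nM) with 25 μM ATP in 50 mM Tris pH 8.5, 5 mM MgCl2, 1 mM EGTA, 0.01% Brij-35, 2 mM DTT for 60 min at RT. After EDTA stop, Tb-anti-pERM TR-FRET (520/495 nm ratio) was read. IC50 values came from 11-point, 3-fold compound dilutions.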
(Time-resolved FRET reads energy transfer from a long-lived donor to a nearby acceptor.)

The target in assay [2] is T2, Recombinant wild type LRRK2 protein (Homo sapiens, UniProt Q5S007).
T2 construct: purchased Life Technologies PR8604B
Description: LanthaScreen Kinase Activity Assay (TR-FRET), wild type LRRK2. As to conditions: 25 μM ATP, 400 nM LRRKtide, 2.9 nM kinase, 60 min at room temperature, read-out: LRRK2 WT IC50. It is filed as biochemical. Summed up:
as §1

Each structure is given as a SMILES string. Like-named read-outs stand apart in the source and are kept apart here.

T2 sequence (Q5S007 whole entry): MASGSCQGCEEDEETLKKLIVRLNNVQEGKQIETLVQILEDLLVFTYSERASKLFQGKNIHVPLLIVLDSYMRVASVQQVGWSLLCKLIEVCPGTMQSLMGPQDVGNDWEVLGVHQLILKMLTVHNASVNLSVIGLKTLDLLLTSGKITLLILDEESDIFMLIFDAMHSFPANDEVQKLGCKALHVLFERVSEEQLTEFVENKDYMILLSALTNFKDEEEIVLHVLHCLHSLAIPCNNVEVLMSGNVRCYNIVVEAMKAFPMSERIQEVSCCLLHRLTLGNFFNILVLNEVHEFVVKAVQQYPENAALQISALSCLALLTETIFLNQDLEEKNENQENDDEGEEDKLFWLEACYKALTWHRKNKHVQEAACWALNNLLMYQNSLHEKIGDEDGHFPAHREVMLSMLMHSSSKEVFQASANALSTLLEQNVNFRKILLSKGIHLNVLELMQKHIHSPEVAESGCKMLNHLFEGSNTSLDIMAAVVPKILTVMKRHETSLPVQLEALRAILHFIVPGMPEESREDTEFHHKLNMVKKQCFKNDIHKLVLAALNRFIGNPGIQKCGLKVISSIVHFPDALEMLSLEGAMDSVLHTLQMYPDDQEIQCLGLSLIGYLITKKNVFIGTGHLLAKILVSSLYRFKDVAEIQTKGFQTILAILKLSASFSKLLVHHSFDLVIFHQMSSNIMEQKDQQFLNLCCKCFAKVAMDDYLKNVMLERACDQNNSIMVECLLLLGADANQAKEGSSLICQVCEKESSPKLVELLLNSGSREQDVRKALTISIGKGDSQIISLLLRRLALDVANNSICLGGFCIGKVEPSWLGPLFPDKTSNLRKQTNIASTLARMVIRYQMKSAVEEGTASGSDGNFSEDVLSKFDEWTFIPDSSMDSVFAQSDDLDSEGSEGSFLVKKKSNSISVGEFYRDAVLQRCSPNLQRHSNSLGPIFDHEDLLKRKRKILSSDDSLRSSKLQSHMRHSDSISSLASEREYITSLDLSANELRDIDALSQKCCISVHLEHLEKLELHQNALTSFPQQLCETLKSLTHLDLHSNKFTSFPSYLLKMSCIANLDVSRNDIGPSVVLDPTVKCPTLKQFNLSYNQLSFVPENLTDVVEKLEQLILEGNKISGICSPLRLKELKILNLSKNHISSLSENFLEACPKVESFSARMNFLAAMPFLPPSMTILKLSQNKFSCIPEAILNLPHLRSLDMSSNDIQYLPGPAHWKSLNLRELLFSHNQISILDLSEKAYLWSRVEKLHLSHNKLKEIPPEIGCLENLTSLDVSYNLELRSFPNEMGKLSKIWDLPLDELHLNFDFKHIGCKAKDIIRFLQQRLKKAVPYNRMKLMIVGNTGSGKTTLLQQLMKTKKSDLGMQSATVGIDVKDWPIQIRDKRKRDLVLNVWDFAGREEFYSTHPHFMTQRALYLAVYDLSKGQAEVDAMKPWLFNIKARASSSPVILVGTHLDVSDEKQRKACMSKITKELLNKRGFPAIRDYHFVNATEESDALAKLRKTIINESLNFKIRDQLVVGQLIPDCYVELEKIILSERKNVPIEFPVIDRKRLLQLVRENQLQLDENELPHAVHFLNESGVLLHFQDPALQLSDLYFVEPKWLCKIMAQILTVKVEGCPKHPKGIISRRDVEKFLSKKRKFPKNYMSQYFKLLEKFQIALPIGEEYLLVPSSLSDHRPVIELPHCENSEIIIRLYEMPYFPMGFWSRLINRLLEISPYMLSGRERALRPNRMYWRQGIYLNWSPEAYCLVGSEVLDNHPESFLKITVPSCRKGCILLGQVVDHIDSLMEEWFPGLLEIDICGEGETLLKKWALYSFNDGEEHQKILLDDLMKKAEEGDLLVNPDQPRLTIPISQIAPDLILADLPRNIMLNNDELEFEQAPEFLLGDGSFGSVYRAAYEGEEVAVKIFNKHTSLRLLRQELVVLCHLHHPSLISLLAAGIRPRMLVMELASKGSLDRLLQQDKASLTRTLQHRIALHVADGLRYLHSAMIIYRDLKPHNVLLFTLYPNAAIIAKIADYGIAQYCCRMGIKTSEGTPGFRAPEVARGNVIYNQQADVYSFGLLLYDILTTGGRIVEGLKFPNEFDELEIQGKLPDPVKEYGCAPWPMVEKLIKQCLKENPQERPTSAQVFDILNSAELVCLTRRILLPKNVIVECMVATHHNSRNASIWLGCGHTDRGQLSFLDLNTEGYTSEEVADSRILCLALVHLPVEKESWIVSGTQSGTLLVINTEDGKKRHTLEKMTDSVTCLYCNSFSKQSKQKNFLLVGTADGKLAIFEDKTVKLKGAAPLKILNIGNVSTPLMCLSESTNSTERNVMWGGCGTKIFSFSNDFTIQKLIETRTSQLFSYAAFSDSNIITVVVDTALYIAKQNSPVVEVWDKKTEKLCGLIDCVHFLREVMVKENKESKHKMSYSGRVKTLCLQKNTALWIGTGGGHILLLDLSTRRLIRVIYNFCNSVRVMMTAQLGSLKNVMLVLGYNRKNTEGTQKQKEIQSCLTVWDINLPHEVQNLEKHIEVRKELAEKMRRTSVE
T1 sequence (Q5S007 whole entry G2019S): as the sequence (Q5S007 whole entry) above, with G2019S counted along it

On to `Cn1ncc2c(F)c(C(=O)Nc3ccc4[nH]nc(N5CC(C(=O)O)C5)c4c3)c(F)cc21` [Example 142, 1-(5-(4,6-difluoro-1-methyl-1H-indazole-5-carboxamido)-1H-indazol-3-yl)azetidine-3-carboxylic acid], for which the IC50 (commonly the concentration that gives 50% inhibition) in assay [1] was 1000 to 10000 nM; in assay [2] (numeric bound instead of class symbol), over 10000 nM.

As for `Cn1ncc2c(F)c(C(=O)Nc3cc4c(-c5ccccc5)n[nH]c4cc3F)c(F)cc21` [Example 143, 4,6-Difluoro-N-(6-fluoro-3-phenyl-1H-indazol-5-yl)-1-methyl-1H-indazole-5-carboxamide], the values for the IC50 in assay [1] and in assay [2] (class symbols) were at most 100 nM and 100 to 1000 nM, respectively.

Turning to `Cn1ncc2c(F)c(C(=O)Nc3cc4c(-c5ccoc5)n[nH]c4cc3F)c(F)cc21` [Example 144, 4,6-Difluoro-N-(6-fluoro-3-(furan-3-yl)-1H-indazol-5-yl)-1-methyl-1H-indazole-5-carboxamide], the IC50 in assay [1] and in assay [2] (class symbols) was at most 100 nM throughout.

`Cc1cc2cncn2cc1C(=O)Nc1ccc2[nH]nc(C)c2c1` [Example 145, 7-Methyl-N-(3-methyl-1H-indazol-5-yl)imidazo[1,5-a]pyridine-6-carboxamide]: the IC50 in assay [1] was at most 100 nM; in assay [2] (class symbols), 100 to 1000 nM.

As for `Cc1cc2cncn2cc1C(=O)Nc1ccc2[nH]nc(-c3ccoc3)c2c1` [Example 146, N-(3-(Furan-3-yl)-1H-indazol-5-yl)-7-methylimidazo[1,5-a]pyridine-6-carboxamide], the IC50 in assay [1] and in assay [2] (class symbols) was at most 100 nM throughout.

With `Cc1cc2c(C)ncn2c(C)c1C(=O)Nc1ccc2[nH]nc(-c3ccoc3)c2c1` [Example 147, N-(3-(Furan-3-yl)-1H-indazol-5-yl)-1,5,7-trimethylimidazo[1,5-a]pyridine-6-carboxamide], the IC50 in assay [1] and in assay [2] (class symbols) was at most 100 nM in each case.

Take `Cc1cc2c(C)ncn2c(C)c1C(=O)Nc1ccc2[nH]nc(C)c2c1` [Example 148, 1,5,7-Trimethyl-N-(3-methyl-1H-indazol-5-yl)imidazo[1,5-a]pyridine-6-carboxamide]: the IC50 in assay [1] was at most 100 nM; in assay [2] (class symbols) it was 100 to 1000 nM.

Consider `Cc1c(C(=O)Nc2ccc3[nH]nc(-c4ccccc4)c3c2)ccn2nncc12` [Example 149, 4-Methyl-N-(3-phenyl-1H-indazol-5-yl)-[1,2,3]triazolo[1,5-a]pyridine-5-carboxamide], for which the IC50 in assay [1] and in assay [2] (class symbols) was at most 100 nM throughout.

As for `Cc1cc2cnnn2c(C)c1C(=O)Nc1ccc2[nH]nc(-c3ccoc3)c2c1` [Example 150, N-(3-(Furan-3-yl)-1H-indazol-5-yl)-5,7-dimethyl-[1,2,3]triazolo[1,5-a]pyridine-6-carboxamide], the IC50 in assay [1] and in assay [2] (class symbols) was at most 100 nM in each case.

In the case of `Cc1cc2cncn2c(C)c1C(=O)Nc1ccc2[nH]nc(-c3ccoc3)c2c1` [Example 151, N-(3-(Furan-3-yl)-1H-indazol-5-yl)-5,7-dimethylimidazo[1,5-a]pyridine-6-carboxamide], the half-maximal inhibitory concentration (IC50) in assay [1] and in assay [2] (class symbols) was at most 100 nM in each case.

Consider `Cc1cn2cncc2cc1C(=O)Nc1ccc2[nH]nc(-c3ccoc3)c2c1` [Example 152, N-(3-(Furan-3-yl)-1H-indazol-5-yl)-6-methylimidazo[1,5-a]pyridine-7-carboxamide], for which the IC50 in assay [1] and in assay [2] (class symbols) was at most 100 nM each time.

With `Cc1cc2nncn2c(C)c1C(=O)Nc1ccc2[nH]nc(-c3ccoc3)c2c1` [Example 153, N-(3-(Furan-3-yl)-1H-indazol-5-yl)-5,7-dimethyl-[1,2,4]triazolo[4,3-a]pyridine-6-carboxamide], the IC50 in assay [1] and in assay [2] (class symbols) was at most 100 nM throughout.

As for `Cc1cn2cncc2cc1C(=O)Nc1ccc2[nH]nc(-c3ccco3)c2c1` [Example 154, N-(3-(Furan-2-yl)-1H-indazol-5-yl)-6-methylimidazo[1,5-a]pyridine-7-carboxamide], the IC50 in assay [1] and in assay [2] (class symbols) was at most 100 nM throughout.

For the compound `Cc1cc2cnnn2c(C)c1C(=O)Nc1ccc2[nH]nc(-c3ccco3)c2c1` [Example 155, N-(3-(Furan-2-yl)-1H-indazol-5-yl)-5,7-dimethyl-[1,2,3]triazolo[1,5-a]pyridine-6-carboxamide], the IC50 in assay [1] and in assay [2] (class symbols) was at most 100 nM each time.

`O=C(Nc1ccc2[nH]nc(-c3ccoc3)c2c1)c1ccc2cnsc2c1` [Example 156, N-(3-(Furan-3-yl)-1H-indazol-5-yl)benzo[d]isothiazole-6-carboxamide]: the IC50 in assay [1] and in assay [2] (class symbols) was at most 100 nM throughout.

In the case of `Cc1cc2c(cnn2C)c(C)c1C(=O)Nc1ccc2[nH]nc(-c3ccoc3)c2c1` [Example 157, N-(3-(Furan-3-yl)-1H-indazol-5-yl)-1,4,6-trimethyl-1H-indazole-5-carboxamide], the IC50 in assay [1] and in assay [2] (class symbols) was at most 100 nM in each case.

Take `Cc1cc2c(cnn2C)cc1C(=O)Nc1ccc2[nH]nc(-c3ccoc3)c2c1` [Example 158, N-(3-(Furan-3-yl)-1H-indazol-5-yl)-1,6-dimethyl-1H-indazole-5-carboxamide]: the IC50 in assay [1] and in assay [2] (class symbols) was at most 100 nM throughout.

For the compound `Cn1cc2cc(C(=O)Nc3ccc4[nH]nc(-c5cnco5)c4c3)ncc2n1` [Example 159, 2-Methyl-N-(3-(oxazol-5-yl)-1H-indazol-5-yl)-2H-pyrazolo[3,4-c]pyridine-5-carboxamide], the IC50 in assay [1] and in assay [2] (class symbols) was at most 100 nM throughout.

On to `Cc1cc2c(cnn2C)nc1C(=O)Nc1ccc2[nH]nc(-c3cnco3)c2c1` [Example 160, 1,6-Dimethyl-N-(3-(oxazol-5-yl)-1H-indazol-5-yl)-1H-pyrazolo[4,3-b]pyridine-5-carboxamide], for which the half-inhibitory concentration (IC50) in assay [1] and in assay [2] (class symbols) was at most 100 nM each time.

With `Cc1cn2nc(C(=O)Nc3ccc4[nH]nc(-c5ccoc5)c4c3)cc2c(C)n1` [Example 163, N-(3-(Furan-3-yl)-1H-indazol-5-yl)-4,6-dimethylpyrazolo[1,5-a]pyrazine-2-carboxamide], the IC50 in assay [1] and in assay [2] (class symbols) was at most 100 nM in each case.

Regarding `Cc1nn2ccncc2c1C(=O)Nc1ccc2[nH]nc(-c3ccoc3)c2c1` [Example 164, N-(3-(furan-3-yl)-1H-indazol-5-yl)-2-methylpyrazolo[1,5-a]pyrazine-3-carboxamide], the IC50 in assay [1] and in assay [2] (class symbols) was 100 to 1000 nM in each case.

As to `Cn1ncc2nc(C(=O)Nc3ccc4[nH]nc(-c5cnco5)c4c3)ccc21` [Example 165, 1-Methyl-N-(3-(oxazol-5-yl)-1H-indazol-5-yl)-1H-pyrazolo[4,3-b]pyridine-5-carboxamide], the values for the IC50 in assay [1] and in assay [2] (class symbols) were at most 100 nM and 100 to 1000 nM, respectively.

With `Cn1cc2nc(C(=O)Nc3ccc4[nH]nc(-c5cnco5)c4c3)ccc2n1` [Example 166, 2-Methyl-N-(3-(oxazol-5-yl)-1H-indazol-5-yl)-2H-pyrazolo[4,3-b]pyridine-5-carboxamide], the results for the concentration for half-maximal inhibition (IC50) in assay [1] and in assay [2] (class symbols) were at most 100 nM and 100 to 1000 nM, respectively.

Take `Cn1ncc2cc(C(=O)Nc3ccc4[nH]nc(-c5cnco5)c4c3)ncc21` [Example 167, 1-Methyl-N-(3-(oxazol-5-yl)-1H-indazol-5-yl)-1H-pyrazolo[3,4-c]pyridine-5-carboxamide]: the results for the IC50 in assay [1] and in assay [2] (class symbols) were at most 100 nM and 100 to 1000 nM, respectively.

As for `Cc1cc2cnsc2nc1C(=O)Nc1ccc2[nH]nc(-c3cnco3)c2c1` [Example 168, 5-Methyl-N-(3-(oxazol-5-yl)-1H-indazol-5-yl)isothiazolo[5,4-b]pyridine-6-carboxamide], the IC50 in assay [1] and in assay [2] (class symbols) was at most 100 nM each time.

For the compound `Cc1c(C(=O)Nc2ccc3[nH]nc(-c4cnco4)c3c2)ncc2c1cnn2C` [Example 169, 1,4-Dimethyl-N-(3-(oxazol-5-yl)-1H-indazol-5-yl)-1H-pyrazolo[3,4-c]pyridine-5-carboxamide], the IC50 is at most 100 nM in assay [1] and 100 to 1000 nM in assay [2] (class symbols).

Take `O=C(Nc1ccc2[nH]nc(-c3ccoc3)c2c1)c1nc2cnccc2s1` [Example 170, N-(3-(Furan-3-yl)-1H-indazol-5-yl)thiazolo[4,5-c]pyridine-2-carboxamide]: the results for the half-inhibitory concentration (IC50) in assay [1] and in assay [2] (class symbols) were at most 100 nM and 100 to 1000 nM, respectively.

Consider `O=C(Nc1ccc2[nH]nc(-c3ccoc3)c2c1)c1nc2ccncc2s1` [Example 171, N-(3-(Furan-3-yl)-1H-indazol-5-yl)thiazolo[5,4-c]pyridine-2-carboxamide], for which the IC50 in assay [1] and in assay [2] (class symbols) was at most 100 nM each time.

As for `CC1(C)c2nncn2CCN1C(=O)Nc1ccc2[nH]nc(-c3ccoc3)c2c1` [Example 172, N-(3-(Furan-3-yl)-1H-indazol-5-yl)-8,8-dimethyl-5,6-dihydro-[1,2,4]triazolo[4,3-a]pyrazine-7(8H)-carboxamide], the concentration for half-maximal inhibition (IC50) in assay [1] and in assay [2] (class symbols) was 100 to 1000 nM each time.

The values above are taken from patent publication US20220162192A1 (ESCAPE Bio, Inc., priority 2019, published 2022).
